Assay results published in ChEMBL document CHEMBL1158198, “Indole Alkaloids of Haplophyton crooksii 1” (J Nat Prod, 1996).

These compounds were tested against Acetylcholinesterase (Electrophorus electricus, UniProt O42275) (assay: Inhibition of electric eel AChE).
Sequence of Acetylcholinesterase (O42275 whole entry): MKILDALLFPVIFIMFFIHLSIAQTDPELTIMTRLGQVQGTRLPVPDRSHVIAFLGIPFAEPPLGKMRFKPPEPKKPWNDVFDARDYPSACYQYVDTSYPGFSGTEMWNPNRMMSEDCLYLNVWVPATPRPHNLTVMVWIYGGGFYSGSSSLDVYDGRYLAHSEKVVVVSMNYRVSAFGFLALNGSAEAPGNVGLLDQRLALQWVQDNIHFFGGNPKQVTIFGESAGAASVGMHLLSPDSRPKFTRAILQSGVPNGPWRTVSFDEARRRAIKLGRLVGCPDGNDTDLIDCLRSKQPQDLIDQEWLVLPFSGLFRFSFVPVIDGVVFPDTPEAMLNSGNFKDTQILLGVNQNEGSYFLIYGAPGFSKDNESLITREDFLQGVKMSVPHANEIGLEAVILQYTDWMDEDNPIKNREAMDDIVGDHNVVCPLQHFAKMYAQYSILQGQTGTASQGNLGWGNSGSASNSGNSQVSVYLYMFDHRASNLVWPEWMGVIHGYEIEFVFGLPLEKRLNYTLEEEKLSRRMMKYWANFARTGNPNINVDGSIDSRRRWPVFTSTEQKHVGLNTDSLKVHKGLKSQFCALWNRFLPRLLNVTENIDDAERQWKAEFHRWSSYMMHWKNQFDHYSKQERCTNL
C/C=C1/CN2CC[C@]34c5cccc(OC)c5N[C@H]3C[C@H]1C[C@H]24 was tested, and the IC50 was 57 µM. C/C=C1\CN2[C@H]3C[C@H]1C(C(=O)OC)[C@@H]2Cc1c3n(C)c2ccc(OC)cc12 (some centres not stated) gave an IC50 of 135 µM. C/C=C1/CN2CC[C@]34C(=C(C(=O)OC)[C@H]1C[C@H]23)Nc1ccccc14 [AKUAMMICINE] showed an IC50 of 221 µM. C/C=C1/CN2[C@H]3Cc4c([nH]c5ccccc45)[C@@H]2C[C@@H]1[C@]3(CO)C(=O)OC [AKUAMMIDINE] showed an IC50 of 188 µM. CCC(=O)N1c2c(ccc(OC)c2O)[C@]23CCN4CCC[C@@]5(CC[C@@H]12)CC(=O)O[C@@]453 [CIMICIDINE] showed an IC50 of 197 µM. With CCC(=O)N1c2c(O)cccc2[C@]23CCN4CCC[C@@]5(CC[C@@H]12)CC(=O)O[C@@]453 [CIMICINE] the IC50 was 241 µM. With CC[C@@H]1CCCN(CCc2c(C(C)=O)[nH]c3ccccc23)C1 [CROOKSIDINE] the IC50 was 175 µM. For CCc1[nH]c2ccccc2c1CCN1CCCC(CC)C1 (configuration not stated) [DECARBOMETHOXYTETRAHYDROSECODINE], the IC50 was 203 µM. In the case of COc1c([C@@]23CCN(C)[C@]4(CCC(=O)N4c4c(O)cccc42)C3=O)cc2c(c1OC)N(C)[C@@H]1C=C[C@@]34CCCN5CC[C@@]21[C@]53OC(=O)C4 [HAPLOPHYTINE], the IC50 is reported as 225 µM. In the case of C/C=C1/CN2CC[C@@]34c5ccccc5N(C)[C@H]5O[C@]3(O)[C@@H]2C[C@@H]1[C@]54C(=O)OC [LANCEOMAGINE], the IC50 is reported as 383 µM. With CC[C@H]1[C@@H]2CCN3CC[C@@]4(C(=C2C(=O)OC)Nc2ccccc24)[C@@H]13 [TUBOTAIWINE] the IC50 was 108 µM. Compound COC(=O)[C@@H]1[C@H]2C[C@H]3c4[nH]c5ccccc5c4CCN3C[C@@H]2CC[C@@H]1O [YOHIMBINE] has an IC50 of 431 µM.
